# Publication PMC5048659 (Arthritis Research & Therapy, 2016)
# “Also recorded” adds a separate entry of the source.
# Key:
# GLUT9 (SLC2A9v2/GLUT9ΔN) = target: T1, GLUT9 (SLC2A9v2/GLUT9ΔN) (Homo sapiens, UniProt Q9NRM0); test: GLUT9 urate transport in cRNA-injected oocytes; assay type: cell-based
# T1 construct: expressed in transfected cells
# T1 sequence (Q9NRM0 1-511 isoform Q9NRM0-2): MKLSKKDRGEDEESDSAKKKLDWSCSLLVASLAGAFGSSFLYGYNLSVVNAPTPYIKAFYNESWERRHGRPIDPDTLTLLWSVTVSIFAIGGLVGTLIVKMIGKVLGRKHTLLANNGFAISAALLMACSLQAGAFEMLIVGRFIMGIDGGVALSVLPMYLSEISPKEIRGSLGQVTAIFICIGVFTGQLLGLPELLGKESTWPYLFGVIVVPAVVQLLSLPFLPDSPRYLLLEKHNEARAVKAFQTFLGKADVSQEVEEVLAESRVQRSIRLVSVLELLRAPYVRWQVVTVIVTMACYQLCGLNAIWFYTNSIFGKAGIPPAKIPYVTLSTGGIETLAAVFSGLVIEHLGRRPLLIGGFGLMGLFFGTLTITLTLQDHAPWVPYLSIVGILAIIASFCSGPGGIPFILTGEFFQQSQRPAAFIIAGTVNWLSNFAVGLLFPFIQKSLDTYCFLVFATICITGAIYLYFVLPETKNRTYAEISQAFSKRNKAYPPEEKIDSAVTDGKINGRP
# Procedure: For GLUT9, SLC2A9v2/GLUT9ΔN in pCMV6/neo was linearized with XmaI and NotI and cRNA transcribed using the mMessage mMachine T7 kit (Ambion). Oocytes were injected with either water or 25 ng cRNA and incubated for 3 to 5 days in ND96 buffer. For each point, 10 oocytes were incubated with 100 μM ^14C-uric acid in ND96 buffer with and without test compounds at room temperature for 60 minutes. The oocytes were then washed three to four times in ice-cold ND96 buffer and lysed prior to scintillation counting.
# OAT3 = tested on: OAT3; set-up: method as in earlier work; conditions: oocytes, 2 µM 3H-estrone sulfate, 60 min; shown in Figure S1; ref 41 (Shen et al.); read-out: IC50 against OAT3; cited from earlier work
# [1] = Lesinurad plasma pharmacokinetics and urinary excretion in the clinic; assay type: in vivo, human; conditions: single 200-mg dose
# Procedure: (§1) In each treatment period, plasma samples were collected within 30 minutes before dosing (pre-dose) and at 0.5, 1, 1.5, 2, 3, 4, 5, 6, 8, 10, 12, 16, 24, 30, 36, and 48 hours post-dose. Urine (total catch) was collected pretreatment at hours –24 to –18, –18 to –12, and –12 to 0, and post-dose at hours 0 to 6, 6 to 12, 12 to 24, 24 to 30, 30 to 36, and 36 to 48.
# After protein precipitation of the samples, lesinurad levels in plasma and urine were measured at Ardea Biosciences by quantitative high performance liquid chromatography with tandem mass spectrometry. […] The parameters from individual profiles of lesinurad were determined using noncompartmental methods. Urine samples were analyzed for uric acid and creatinine using enzymatic methods by Covance Clinical Research Unit (Dallas, TX, USA), and pharmacodynamic (PD) parameters were determined by Covance Clinical Research Unit using SAS, Version 8.2 (SAS Institute Inc). Calculated PD parameters for uric acid included urinary excretion, renal clearance, and FEUA. FEUA was calculated by dividing the uric acid clearance by the creatinine clearance.
# HepG2 cells = test: Mitochondrial toxicity assay (JC-1 mitochondrial membrane potential); assay type: cell-based, human; conditions: HepG2, highest concentration tested 33 μM
# Procedure: HepG2 cells were counted via hemocytometer and diluted into equal volumes of serum-free Opti-MEM (Life Technologies) and JC-1 Staining Solution (Sigma catalog number CS0390) at 300,000 cells/mL in the presence of 2.5 μg/mL JC-1. Cells were incubated at 37 °C and 5 % CO2 for 20 minutes, rinsed once with Hank's Balanced Salt Solution, and resuspended to the same concentration in serum-free Opti-MEM. Cells were then seeded into 96-well black-sided clear-bottom tissue culture plates at 30,000 cells/100 μL/well. Three replicates per experimental condition group were used. Compound was added with the final dimethyl sulfoxide (DMSO) concentration at 0.5 %. After 2 hours at 37 °C and 5 % CO2, medium was aspirated and plates were read on a Gemini EM spectrofluorometer (Molecular Devices). Fluorescence of JC-1 monomers was monitored by excitation at 490 nm and emission at 530 nm (green) and of aggregates by excitation at 525 nm and emission at 590 nm (red). The ratio of J-aggregates to monomers was calculated, with a lower ratio indicating increased cell toxicity. The percent change in mitochondrial membrane potential (Ψm) was calculated as follows: […]
# healthy volunteers = test: Clinical effect on serum uric acid (phase 1 RDEA594-109); assay type: in vivo, human
# Procedure: as §1
# Serum was collected within 30 minutes prior to drug administration, and at 6, 12, 16, 24, 30, 36, and 48 hours after dosing. Serum urate levels and PD parameters were assayed and calculated by Covance Clinical Research Unit as described above.
compound,measurement,setting,value
"O=C(O)CSc1nnc(Br)n1-c1ccc(C2CC2)c2ccccc12 [Lesinurad, 2-((5-bromo-4-(4-cyclopropylnaphthalen-1-yl)-4H-1,2,4-triazol-3-yl)thio) acetic acid]",IC50,"GLUT9 (SLC2A9v2/GLUT9ΔN); 100 μM 14C-uric acid, 60 min, read-out: Potency against GLUT9",> 100 µM
same,Effect on GLUT9 urate transport,GLUT9 (SLC2A9v2/GLUT9ΔN); compound at up to 100 μM,no effect; also recorded: does not inhibit
same,IC50,OAT3,3.54 µM
same,Maximal plasma concentration,[1],29 µM
same,Predicted maximal plasma-free concentration,[1]; from Cmax and 98.4 % protein binding,0.46 µM
same,Mitochondrial toxicity,HepG2 cells,no mitochondrial toxicity
same,Reduction of sUA,"healthy volunteers; single 200-mg dose, after 6 hours, p < 0.001",33%
same,Maximum reduction of sUA,"healthy volunteers; single 600-mg dose, after 6 hours",42%
same,Reduction of sUA,"healthy volunteers; single 600-mg dose, after 24 hours",31%
